Laboratory results from patent US20150335535A1, “DENTAL ADHESIVE” (DENTSPLY INTERNATIONAL INC., priority 2008, published 2015).

Test: Thermal stability of test formulation on storage at 60° C. until thermal polymerization
Format: physicochemical
Details: for thermal stability of formulation FBE-05.44.01: all columns dark shaded; for sufficient thermal stability: inhibitor in test formulation
Procedure: A series of test formulations containing different thermal polymerization inhibitors was prepared in order to illustrate the surprising thermal stability of a dental adhesive composition according to the present invention. Test formulations containing different inhibitors or inhibitor concentrations were stored in Prime&Bond NT bottles ([…]) at 60° C. until thermal polymerization. The bottles were daily examined by shaking the bottle, whereby the acoustical test turned out to be rather sensitive, and by taking a sample with a pipette. When polymerization seemed to have occurred or after a certain minimum storage time (20 days) the bottles were sliced open and the solution were examined visually. According to the results of the above described Arrhenius investigation at least a thermal stability of about 11 days at 60° C. is necessary so that the dental adhesive composition may be stored at room temperature. The Test Formulation containing different inhibitors in different amounts, was investigated regarding its thermal stability by storing these formulations at 60° C. The samples were daily examined. In case of polymerization a gel or a solid, polymerized body was observed. The dark shaded columns represent formulations with inhibitors, respectively inhibitor concentrations, which were polymerized after the depicted time at 60° C. The light shaded columns represent formulations, which were not polymerized until the depicted time. Usually after 20 days the investigation was terminated.

For `CC(C)(C)c1cc(O)ccc1O` [TBHQ, tert-Butylhydroquinone], the “visual examination after slicing open the bottles” value (0.013 mol % inhibitor, after 20 days at 60° C.) was “polymerization was found” and the “visual examination after slicing open the bottles” value (after 14 days and after 20 days at 60° C., FBE-05.44.01) was “No hints of a polymerization were found”.
For `COc1ccc(O)c(C(C)(C)C)c1` [tert.-Butylhydroxyanisole, tert.-Butylhydroxyanisol], the “visual examination after slicing open the bottles” value (0.047 mol % inhibitor, after 14 days at 60° C.) was “some pieces of gel”, the “visual examination after slicing open the bottles” value (0.047 mol % inhibitor, after 20 days at 60° C.) was “some small pieces of gel” and the “visual examination after slicing open the bottles” value (0.096 mol % inhibitor, after 20 days at 60° C.) was “No indication of polymerization”. For the same molecule, the “visual examination after slicing open the bottles” value (0.147 mol % inhibitor, after 20 days at 60° C.) was “No indication of polymerization”.
With `CC(C)(C)c1ccc(O)c(O)c1` [TBC] the “visual examination after slicing open the bottle” value (0.193 mol % inhibitor, storage at 60° C.) was “some pieces of gel were found at the bottom”.
In the case of `CCCOC(=O)c1cc(O)c(O)c(O)c1` [PG, Propyl gallate], the “thermal stability of formulation FBE-05.44.01” value (storage at 60° C.) is reported as “polymerized after the recorded time”.
With `CC(C)(c1ccc(O)cc1)c1ccc(O)cc1` [Bisphenol A] the “thermal stability of formulation FBE-05.44.01” value (storage at 60° C.) was “polymerized after the recorded time”.
In the case of `Oc1ccc(O)cc1` [HQ, hydroquinone], the stabilization effect (inhibitor 0.15 mol % in test formulation, storage at 60° C.) is reported as “some stabilization effect”.
For `COc1ccc(O)cc1` [HQME, hydroquinone monomethylether], the “visual examination after slicing open the bottle” value (0.49 mol % inhibitor in FBE-05.44.01, storage at 60° C.) was “small pieces of gel were found at the bottom”, the “visual examination after slicing open the bottle” value (0.697 mol % inhibitor in FBE-05.44.01, storage at 60° C.) was “small pieces of gel were found at the bottom” and the sufficient thermal stability (storage at 60° C.) was “failed to provide a sufficient thermal stability”.
With `Cc1cc(C(C)(C)C)c(O)c(C(C)(C)C)c1` [BHT, 2,6-di-tert.-butyl-p-cresol] the sufficient thermal stability (storage at 60° C.) was “failed to provide a sufficient thermal stability”.
